How the values were obtained:
Format in all cases: in vivo
[1] = test system: Diamondback Moth (Plutella xylostella, PLUTMA); assay: Bioassay 6: Diamondback Moth, artificial lepidopteran diet, live larvae after 5 days; conditions: DBM; AI alone 0.04 % w/v
Protocol: where X=No. of live nymphs on solvent check and Y=No. of live nymphs on treated bean segments. In Table B5 the “Expected % Control” was calculated using the method described in Colby S. R., Weeds, 1967, 15, 20-22. Bioassay 6: Beet Armyworm (Spodoptera exigua, LAPHEG) (BAW), and Diamondback Moth (Plutella xylostella, PLUTMA) (DBM).
(§1) Stock solutions were prepared with Formula One as well as for each of the active ingredients individually. Test solutions were prepared from the stock solutions. Test solutions were prepared containing Formula One, the individual active ingredients, and mixtures of Formula One with each of the active ingredients. The test solution for Formula One was prepared by adding 500 μL of the stock solution to a 25 mL glass vial, then adding 500 μL of a 9:1 mixture of acetone: water. The individual active ingredients were prepared by adding 500 μL of stock solution to a 25 mL glass vial, then adding 500 μL of a 9:1 mixture of acetone: water. The test solutions containing mixtures of Formula One and the individual active ingredients were prepared by adding 500 μL of the active ingredient stock solution to a 25 mL glass vial, followed by 500 μL of the Formula One stock solution, creating a test solution containing 4000 ppm Formula One and 0.4% (w/v) of the active ingredient. Each test solution was serially diluted to create desired doses of test solutions (0.4% (w/v), 0.04% (w/v), 0.004% (w/v), 0.0004% (w/v), 0.00004% (w/v), and 0.000004% (w/v)). In test solutions containing mixtures of Formula One and the active ingredients, the active ingredients were diluted as described above, but the Concentration of Formula One was held constant (0.4% (w/v)). The highest dose test solution (0.4% (w/v)) was discarded, leaving 5 test solution concentrations used in the test.
The test solutions were tested against BAW and DBM using the following procedure: An artificial lepidopteran diet (Multispecies Lepidopteran Diet, Southland Products) was distributed in 128-cell bioassay trays (Frontier Agricultural Sciences™). 50 μL of test solution was pipetted into a cell in the bioassay tray. (The test solution doses of 0.04% (w/v), 0.004% (w/v), 0.0004% (w/v), 0.00004% (w/v), and 0.000004% (w/v) translated to concentrations of 5, 0.5, 0.05, 0.005, and 0.0005 ug/cm^2 on the diet, respectively.) A reference treatment (solvent check) was treated with the diluent only. […] After 5 days, the number of live larvae were recorded from each cell and percent control was measured using Abbott's correction formula (W. S. Abbott, J. Econ. Entomol. 18 (1925), pp. 265-267) as follows:
where X=No. of live larvae on solvent check and Y=No. of live larvae on treated diet. In Table B6 the “Expected % Control” was calculated using the method described in Colby S. R., Weeds, 1967, 15, 20-22. […]

[2] = test system: Western Flower Thrips (Frankliniella occidentalis, FRANOC); assay: Bioassay 3: Western Flower Thrips, cotton leaf disc dip, live WFT counted 3 days after treatment; conditions: Frankliniella occidentalis, foliar, 72 h; AI alone 0.0003125 % w/v
Protocol: Stock solutions of Formula One and various active ingredients were prepared initially at a concentration of 8 mg/ml for Formula One and 1 mg/mL for the active ingredients, respectively, using acetone as a diluent. Stock solutions were prepared with Formula One as well as for each of the active ingredients individually. Test solutions were prepared from the stock solutions. Test solutions were prepared containing Formula One, the individual active ingredients, and mixtures of Formula One with each of the active ingredients. The test solution for Formula One was prepared by adding 500 μL of the stock solution to a 25 mL glass vial, then adding 500 μL of acetone, followed by the addition of 9 mL water with 0.025% Tween®) 20 to create a 0.04% (w/v) solution. The test solutions of the individual active ingredients were prepared by adding 500 μL of stock solution to a 25 mL glass vial, then adding 500 μL of acetone, followed by the addition of 9 mL water with 0.025% Tween®) 20 to create a 0.005% (w/v) solution. The test solutions containing mixtures of Formula One and the individual active ingredients were prepared by adding 500 μL of the active ingredient stock solution to a 25 mL glass vial, followed by 500 μL of the Formula One stock solution, then by the addition of 9 mL water with 0.025% Tween®) 20 to create a test solution containing 0.04% (w/v) Formula One and 0.005% (w/v) of the active ingredient. Each test solution was serially diluted to create desired doses of test solutions (0.005% (w/v), 0.00125% (w/v), 0.0003125% (w/v), 0.000078% (w/v), and 0.0000195% (w/v)). In test solutions containing mixtures of Formula One and the active ingredients, the active ingredients were diluted as described above, but the Concentration of Formula One was held constant (0.04% (w/v)).
The test solutions were tested against WFT using the following procedure: Leaf discs (2.7 cm in diameter) were cut from the true leaves of cotton plants. Leaf discs were dipped into the test solutions and shaken to ensure complete coverage of the leaf disc and then placed in Millipore®) PetriSlides containing a filter paper disc. Treated leaf discs were air dried for approximately 1 hour. Each leaf disc was infested with 5 WFT (9-10-day old nymphs) by placement on each leaf disc, and the PetriSlides were capped to prevent escape. Each treatment was replicated three times and the test treatments were held at approximately 26° C. and ambient relative humidity (RH) prior to grading. Reference discs (solvent check) were treated with the diluent only. Evaluation was conducted by counting the number of live WFT under magnification 3 days after treatment. Percent control was measured using Abbott's correction formula (W. S. Abbott, J. Econ. Entomol. 18 (1925), pp. 265-267) as follows:
where X=No. of live nymphs on solvent check leaf discs and Y=No. of live nymphs on treated leaf discs. In Table B3 the “Expected % Control” was calculated using the method described in Colby S. R., Weeds, 1967, 15, 20-22. Bioassay 4: Western Tarnished Plant Bug (Lygus hesperus, LYGUHE) (“WTPB”).

[3] = test system: Sweet Potato Whitefly (Bemisia tabaci, BEMITA); assay: Bioassay 2: Sweet Potato Whitefly, spray on cotton seedlings at crawler emergence, nymphs counted 7-9 days after treatment; conditions: AI alone 0.1 (10-5) % w/v
In short: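 Cotton seedlings pruned to one true leaf were colonized by adult B. tabaci for 24 h egg-laying, then sprayed once >25% crawler emergence was underway; solutions 0.001% to 0.00000001% (w/v) in acetone/water with 0.025% Tween 20. Held ~25° C; live 2-3 instar nymphs counted 7-9 days later, Abbott-corrected % control.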

[4] = test system: Diamondback Moth (Plutella xylostella, PLUTMA); assay: Bioassay 9: Diamondback Moth, leaves of track-sprayed cabbage plants, mortality and feeding damage scored; conditions: AI alone 20 (10^-5) Wt %
Protocol: (§2) where X=No. of live nymphs on solvent check plants and Y=No. of live nymphs on treated plants. In Table B2 the “Expected % Control” was calculated using the method described in Colby S. R., Weeds, 1967, 15, 20-22. Bioassay 9: Diamondback Moth (Plutella xylostella, PLUTMA) (DBM).
as §1
Cabbage seedlings, grown in 3-inch pots with 2-3 small (3-5 centimeter (cm)) true leaves, were used as test substrate. Cabbage plants were sprayed with desired concentrations of Formula One and active ingredients or their mixtures using a track Sprayer. Reference plants (solvent check) were sprayed with diluent only (0.025% Tween® 20 and 10% acetone:methanol (1:1) in water). The sprayed cabbage plants were allowed to dry for 1 hour, after which leaves from each treatment were placed in a cell of a plastic tray. One leaf per cell and 8 replicates for each cell. The tested doses ranged between 0.000001% (w/v) to 0.0002% (w/v). One 2nd instar DBM larvae were placed in each cell of the tray and allowed to feed on the cabbage foliage for […] after which the mortality and feeding damage were scored. Test trays were held at approximately 26° C. and ambient relative humidity (RH) prior to grading. The number of live larvae were recorded from each cell and percent control was measured using Abbott's correction formula (W. S. Abbott, J. Econ. Entomol. 18 (1925), pp. 265-267) as follows:
where X=No. of live larvae on solvent check and Y=No. of live larvae on treated diet. In Table B6 the “Expected % Control” was calculated using the method described in Colby S. R., Weeds, 1967, 15, 20-22.

[5] = test system: Cotton Aphid (Aphis gossypii, APHIGO); assay: Bioassay 7: Cotton Aphid, foliar spray on infested cotton seedlings, live aphids counted three days after treatment
Protocol: where X=No. of live larvae on solvent check and Y=No. of live larvae on treated diet. In Table B6 the “Expected % Control” was calculated using the method described in Colby S. R., Weeds, 1967, 15, 20-22. Bioassay 7: Cotton Aphid (Aphis gossypii, APHIGO) (“CA”).
Stock solutions of Formula One and one or more of the active ingredients were prepared at concentrations of 1 mg/mL using a 1:1 mixture of acetone: methanol as a diluent. The stock solutions were prepared with Formula One as well as for each of the active ingredients individually. Test solutions were prepared from the stock solutions. Test solutions were prepared containing Formula One, the individual active ingredients, and mixtures of Formula One with each of the active ingredients. The test solutions for Formula One and the individual active ingredients were prepared by adding 1.5 mL of stock solution to a 30 mL glass vial, then adding 1.5 mL of 1:1 acetone: methanol solvent, followed by the addition of 27 mL water with 0.025% Tween® 20 to create a […]. Each test solution was serially diluted to create desired doses of test solutions ranging from 0.000001 to 0.0025% (w/v). The test solutions were tested against CA using the following procedure: cotton seedlings were grown in 3-inch pots with one true leaf (2-5 cm in diameter) were used as test substrate. The seedlings were infested with 20-50 CA (wingless adult and nymph stages) one day prior to chemical application. Four pots with individual seedlings were used for each treatment. A hand-held aspirator-type sprayer was used for spraying a solution to both sides of […] leaves until runoff. Reference plants (solvent check) were sprayed with the diluent only (0.025% Tween® 20 and 10% acetone:methanol (1:1) in water). Treated plants were held in a holding room for three days at approximately 25° C. and ambient relative humidity (RH about 20% to about 45%) prior to grading. Evaluation was conducted by counting the number of live aphids per plant under a microscope three days after treatment. Percent control was measured using Abbott's correction formula (W. S. Abbott, J. Econ. Entomol. 18 (1925), pp. 265-267) as follows:
(§3) where X=No. of live aphids on solvent check plants and Y=No. of live aphids on treated plants. In Table B1 the “Expected % Control” was calculated using the method described in Colby S. R., Weeds, 1967, 15, 20-22. Bioassay 8: Sweet Potato Whitefly (Bemisia tabaci, BEMITA) (“SPW”).

[6] = test system: Sweet Potato Whitefly (Bemisia tabaci, BEMITA); assay: Bioassay 8: Sweet Potato Whitefly, spray on cotton seedlings at crawler emergence, nymphs counted 7-9 days after treatment
Protocol: as §3
Stock solutions were prepared with Formula One as well as for each of the active ingredients individually. Test solutions were prepared from the stock solutions. Test solutions were prepared containing Formula One, the individual active ingredients, and mixtures of Formula One with each of the active ingredients. The test solutions for Formula One and the individual active ingredients were prepared by adding 500 μL of stock solution to a 25 mL glass vial, then adding 500 μL of acetone, followed by the addition of 9 mL water with 0.025% Tween®) 20 to create a 0.001% (w/v) solution. The test solutions containing mixtures of Formula One and the individual active ingredients were prepared by adding 500 μL of the active ingredient stock solution to a 25 mL glass vial, followed by 500 μL of the Formula One stock solution, then by the addition of 9 mL water with 0.025% Tween®) 20 to create a test solution containing 0.001% (w/v) Formula One and 0.001% (w/v) of the active ingredient. Each test solution was serially diluted to create desired doses of test solutions (0.001% (w/v), 0.0001% (w/v), 0.00001% (w/v), 0.000001% (w/v), 0.0000001% (w/v), […] and 0.00000001% (w/v)).
The test solutions were tested against SPW using the following procedure: Cotton seedlings grown in 3-inch pots, pruned so that only one true leaf remained, were used as test substrate. Adult B. tabaci were allowed to colonize the cotton plants and lay eggs for 24 hours after which all adults were removed from the plants using compressed air. Plants were monitored for egg development and, when crawler emergence was underway (>25% emergence based on visual examination using a microscope), the plants were sprayed using the test solutions and methods described above for green peach aphids (GPA). Treated plants were held in a holding room at approximately 25° C. and ambient relative humidity (RH) prior to grading. Evaluation was conducted by counting the number of developed 2-3 instar nymphs per plant under a microscope 7-9 days after treatment. Percent control was measured using Abbott's correction formula (W. S. Abbott, J. Econ. Entomol. 18 (1925), pp. 265-267) as follows:
as §2

[7] = test system: Diamondback Moth (Plutella xylostella, PLUTMA); assay: Bioassay 9: Diamondback Moth, leaves of track-sprayed cabbage plants, mortality and feeding damage scored; conditions: Feeding damage control; AI alone 40 (10^-5) Wt %

Compound	Average % Control AI [1]	pest or weed control at 0.0003125 % strength [2]	Average % Control AI [3]	Average % Control AI ([4]; Acute mortality)	Average % Control AI ([4]; Feeding damage control)	Average % Control A1 ([5]; AI alone 0.2 (10^-5) Wt %)	Average % Control A1 ([5]; AI alone 7 (10^-5) Wt %)	Average % Control A1 ([5]; AI alone 12 (10^-5) Wt %)	Average % Control A1 ([6]; AI alone 0.1 (10^-5) Wt %)	Average % Control A1 ([6]; AI alone 0.8 (10^-5) Wt %)	Average % Control AI [7]
CNC(=O)O/N=C(\SC)C(=O)N(C)C [Oxamyl]	0%	0%	0%								
Spidoximat				0.00%	17.83%	13.25%	32.54%	35.09%	37.90%	62.26%	37.98%
